Assays:
Type in all cases: toxicity, cell-based
[1] = Cytotoxicity against human SF-268 cells assessed as reduction in cell viability after 24 hrs by SRB assay
[2] = Cytotoxicity against human HepG2 cells assessed as reduction in cell viability after 24 hrs by SRB assay
[3] = Cytotoxicity against human A549 cells assessed as reduction in cell viability after 24 hrs by SRB assay
[4] = Cytotoxicity against human MCF7 cells assessed as reduction in cell viability after 24 hrs by SRB assay

Measured: IC50 at 24 h

CC1=CC[C@@H]2[C@@]3(C)CC[C@@]4(C)[C@H](C)[C@@H](O)C=C5[C@@]2(O[C@@H]3[C@]54O)[C@H]1O
> 10 µM: all assays above

C=C1CC[C@@]2(C)[C@H](C)CC=C([C@@H]3[C@@H]1CC[C@](C)(O)[C@H]3O)[C@H]2C
> 10 µM: all assays above

C[C@@H]1CC=C2[C@H]3[C@H](O)[C@@](C)(O)CC[C@@H]3[C@@](C)(O)CC[C@]1(C)[C@@H]2C
> 10 µM: all assays above

CC1=CC[C@H]2[C@]3(O[C@H]4[C@]2(C)[C@@H](O)C[C@@]2(C)[C@H](C)CC=C3[C@@]42O)[C@H]1O
> 10 µM: all assays above

CC1=CC[C@@H]2[C@@]3(C)CC[C@]4(C)C5=C([C@@H](O)C[C@H]4C)[C@@]2(O[C@H]53)[C@H]1O
> 10 µM: all assays above

C=C1CC[C@@]2(C)[C@H](C)C[C@@H]3O[C@]3([C@@H]3[C@@H]1CC[C@](C)(O)[C@H]3O)[C@H]2C
> 10 µM: all assays above

C/C1=C/C[C@@]2(C)[C@H](C)CC=C([C@@H]3[C@@H]1CC[C@](C)(O)[C@H]3O)[C@H]2C
> 10 µM: all assays above

CC1=CC[C@@H]2[C@@]3(C)CC[C@@]4(C)[C@H](C)CC(=O)[C@H]5[C@@]2(O[C@@H]3[C@]54O)[C@H]1O
> 10 µM: all assays above
